Measurements reported in PubChem BioAssay (NCI).
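Method: 48-hour compound exposure of cells in 96-well plates, five concentrations, linear interpolation of endpoints. Here, GI50 denotes the concentration required for 50% inhibition of growth. TGI marks complete inhibition of growth.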

Experiments:
Test in all cases: NCI anticancer screen, dose series, 48 h
A498 renal = test system: A498 renal
SF-268 CNS = test system: SF-268 CNS
HCT-15 colon = test system: HCT-15 colon
TK-10 renal = test system: TK-10 renal
MDA-MB-231 breast = test system: MDA-MB-231 breast
SK-MEL-2 melanoma = test system: SK-MEL-2 melanoma
SF-295 CNS = test system: SF-295 CNS
BT-549 breast = test system: BT-549 breast
RXF 393 renal = test system: RXF 393 renal
RPMI-8226 leukemia = test system: RPMI-8226 leukemia

| SMILES | GI50 (A498 renal) | TGI (A498 renal) | GI50 (SF-268 CNS) | TGI (SF-268 CNS) | GI50 (HCT-15 colon) | TGI (HCT-15 colon) | GI50 (TK-10 renal) | TGI (TK-10 renal) | GI50 (MDA-MB-231 breast) | TGI (MDA-MB-231 breast) | GI50 (SK-MEL-2 melanoma) | TGI (SK-MEL-2 melanoma) | GI50 (SF-295 CNS) | TGI (SF-295 CNS) | GI50 (BT-549 breast) | TGI (BT-549 breast) | GI50 (RXF 393 renal) | TGI (RXF 393 renal) | GI50 (RPMI-8226 leukemia) | TGI (RPMI-8226 leukemia) |
| --- | --- | --- | --- | --- | --- | --- | --- | --- | --- | --- | --- | --- | --- | --- | --- | --- | --- | --- | --- | --- |
| c1cc(OCCCCCOc2cccc(-c3nc4ccccc4[nH]3)c2)cc(-c2nc3ccccc3[nH]2)c1 | 2610 nM | 7.91 µM | 5.12 µM | > 100 µM | 2.71 µM | > 100 µM | 3.88 µM | > 100 µM | 4.08 µM | 30.9 µM | 2050 nM | 5.67 µM | 1.65 µM | 6.57 µM | 1720 nM | 5 µM |  |  |  |  |
| FC(F)(F)c1cccc(CNC2CCN(CCc3ccccc3)CC2)c1 |  |  | 40.3 µM | > 100 µM | 23.3 µM | > 100 µM | 30.7 µM | > 100 µM | 12.6 µM | 35.2 µM | 23500 nM | 47.2 µM | 17.2 µM | 35.4 µM | 24800 nM | > 100 µM | 12.9 µM | 39.5 µM | 22.6 µM | 51.5 µM |
| NS(=O)(=O)c1cc2c(cc1Cl)NCNS2(=O)=O |  |  |  | > 100 µM |  | > 100 µM |  | > 100 µM |  | > 100 µM |  | > 100 µM |  | > 100 µM |  |  |  |  |  | > 100 µM |
| O=C(O)c1cn(C2CC2)c2cc(N3CCN(C(=O)N(c4ccccc4)c4nc(-c5ccccc5)cs4)CC3)c(F)cc2c1=O | 28 nM | 0.688 µM | 0.389 µM | > 100 µM | 0.308 µM | > 100 µM | 1.09 µM | 32.6 µM |  |  | 554 nM | 2.92 µM | 0.305 µM | 3.04 µM | 349 nM | 6.81 µM | 0.272 µM | 1.49 µM |  |  |
| CN(C)CCCC1(c2ccc(F)cc2)OCc2cc(-c3csc4ccccc34)ccc21 (centres undefined) |  |  | 1.64 µM | 3.19 µM | 1.64 µM | 3.07 µM | 1.6 µM | 3.16 µM | 1.34 µM | 2.68 µM | 1830 nM | 3.58 µM | 1.64 µM | 3.04 µM |  |  | 1.54 µM | 2.95 µM |  |  |
| CN(C)[C@@H]1C(=O)C(C(=O)NCc2nc3[nH]cnc(=S)c3[nH]2)=C(O)[C@@]2(O)C(=O)C3=C(O)c4c(O)cccc4[C@@](C)(O)[C@H]3C[C@@H]12 | > 100000 nM | > 100 µM |  |  | 5.66 µM | > 100 µM |  |  |  |  | > 100000 nM | > 100 µM | > 100 µM | > 100 µM | > 100000 nM | > 100 µM | 26.1 µM | > 100 µM | 4.35 µM | > 100 µM |
| CCC12C=C(C(=O)OC)N3c4ccccc4C4CCN(CCC1)C2C43 (centres undefined) |  | > 100 µM |  | > 100 µM |  | > 100 µM |  | > 100 µM |  |  |  | > 100 µM |  | > 100 µM |  |  |  | > 100 µM |  | > 100 µM |
| O=C1c2ccccc2C2(O)N(c3ccccc3)C(=S)N(c3ccccc3)C12O (centres undefined) |  | > 100 µM |  | > 100 µM |  | > 100 µM |  | > 100 µM |  |  |  | > 100 µM |  | > 100 µM |  |  |  | > 100 µM |  | > 100 µM |
| CC(=O)NC(CCCNC(=O)OCc1ccccc1)C(=O)NCc1ccccc1 (centres undefined) |  | > 100 µM |  | > 100 µM |  | > 100 µM |  | > 100 µM |  |  |  | > 100 µM |  | > 100 µM |  |  |  | > 100 µM |  | > 100 µM |
| O=C1C[C@@H]2OCC=C3C[N+]4([O-])CC[C@]56c7ccccc7N1[C@H]5[C@H]2[C@H]3C[C@@H]64 (some centres undefined) | > 100000 nM | > 100 µM | > 100 µM | > 100 µM | > 100 µM | > 100 µM | > 100 µM | > 100 µM | > 100 µM | > 100 µM |  |  | > 100 µM | > 100 µM |  |  | > 100 µM | > 100 µM | > 100 µM | > 100 µM |
| CCN1CCN(CC(=O)Nc2nc3ccc(NCc4ccc(Br)cc4)cc3s2)CC1 | 1760 nM | 3.46 µM |  |  |  |  | 2.24 µM | 4.55 µM | 1.89 µM | 4.15 µM | 1950 nM | 3.63 µM |  |  |  |  | 1.63 µM | 3.25 µM | 1.54 µM | 4.07 µM |
| CC(=O)O[C@H]1C[C@@H]2[C@@]3(C)CC[C@H]4C[C@@]4(C)[C@@H]3CC[C@@]2(C)C2=CCC3=C(COC3=O)[C@]21C |  |  | 21 µM | 46.9 µM | 21 µM | 56.1 µM | 20.4 µM | 48.5 µM | 15.8 µM | 35.9 µM | 36300 nM | > 100 µM | 19.6 µM | 40.9 µM |  |  | 21.2 µM | 52.6 µM | 17.9 µM | 50.2 µM |
| CCOC(=O)C1(C)CCC(C(=O)OC)C1=O (centres undefined) |  | > 100 µM |  | > 100 µM |  | 43.1 µM |  | > 100 µM |  |  |  | > 100 µM |  | > 100 µM |  |  |  | > 100 µM |  | > 100 µM |
| O=c1c2cc(Br)ccc2nc(CNc2ccccc2)n1-c1ccccc1 |  | 93.4 µM |  | > 54.7 µM |  | > 47.9 µM |  | 45.5 µM |  |  |  | 62.3 µM |  | > 58 µM |  |  |  | 44.4 µM |  | > 54.9 µM |
